According to ChEMBL document CHEMBL3822440, “Semi-synthesis and antiproliferative evaluation of PEGylated pentacyclic triterpenes” (Eur J Med Chem, 2016):
pIC50: −log10 of the molar value. Active and inactive are the calls of the source. The rule behind the calls is not given here.

Assays:
HT-29 [1] = test: Cell cycle arrest in human HT-29 cells assessed as accumulation at S phase at cytotoxic IC50 after 72 hrs by propidium iodide staining based flow cytometry (reference value: 48.31 +/- 1.49%); format: functional
HT-29 [2] = test: Induction of apoptosis in human HT-29 cells assessed as early apoptotic cells at cytotoxic IC50 after 72 hrs by Annexin V-FITC/propidium iodide staining based flow cytometry (reference value: 1.65 +/- 0.07%); format: functional
[3] = Cell cycle arrest in mouse B16F10 cells assessed as accumulation at G2/M phase at cytotoxic IC50 after 72 hrs by propidium iodide staining based flow cytometry (reference value: 1.01 +/- 0.13%); format: functional, B16-F10
HT-29 [4] = test: Induction of apoptosis in human HT-29 cells assessed as live cells at cytotoxic IC50 after 72 hrs by Annexin V-FITC/propidium iodide staining based flow cytometry (reference value: 96.65 +/- 0.78%); format: functional
HT-29 [5] = test: Disruption of mitochondrial membrane potential in human HT-29 cells assessed as rhodamine123 positive cells at cytotoxic IC50 after 72 hrs by propidium iodide staining based fluorescence spectroscopic analysis (reference value: 94.25 +/- 0.35%); format: functional
HepG2 [6] = test: Cell cycle arrest in human HepG2 cells assessed as accumulation at G0/G1 phase at cytotoxic IC50 after 72 hrs by propidium iodide staining based flow cytometry (reference value: 39.41 +/- 1.56%); format: functional
[7] = Disruption of mitochondrial membrane potential in mouse B16F10 cells assessed as rhodamine123 negative cells at cytotoxic IC50 after 72 hrs by propidium iodide staining based fluorescence spectroscopic analysis (reference value: 4.45 +/- 0.64%); format: functional, B16-F10
[8] = Induction of apoptosis in mouse B16F10 cells assessed as necrotic cells at cytotoxic IC50 after 72 hrs by Annexin V-FITC/propidium iodide staining based flow cytometry (reference value: 0.75 +/- 0.07%); format: functional, B16-F10
B16-F10 [9] = test: Induction of apoptosis in mouse B16F10 cells assessed as chromatin condensation at cytotoxic IC50 after 72 hrs by Hoechst staining based fluorescence microscopic analysis; format: functional, cell-based
HT-29 [10] = test: Induction of apoptosis in human HT-29 cells assessed as late apoptotic cells at cytotoxic IC50 after 72 hrs by Annexin V-FITC/propidium iodide staining based flow cytometry (reference value: 0.65 +/- 0.35%); format: functional
HepG2 [11] = test: Induction of apoptosis in human HepG2 cells assessed as loss of nuclear architecture at cytotoxic IC50 after 72 hrs by Hoechst staining based fluorescence microscopic analysis; format: functional, cell-based
HepG2 [12] = test: Induction of apoptosis in human HepG2 cells assessed as early apoptotic cells at cytotoxic IC50 after 72 hrs by Annexin V-FITC/propidium iodide staining based flow cytometry (reference value: 0.3 +/- 0.01%); format: functional
HT-29 [13] = test: Induction of apoptosis in human HT-29 cells assessed as necrotic cells at cytotoxic IC50 after 72 hrs by Annexin V-FITC/propidium iodide staining based flow cytometry (reference value: 1.05 +/- 0.35%); format: functional
HT-29 [14] = test: Induction of apoptosis in human HT-29 cells assessed as spherical cell shape at cytotoxic IC50 after 72 hrs by Hoechst staining based fluorescence microscopic analysis; format: functional
HT-29 [15] = test: Induction of apoptosis in human HT-29 cells assessed as disruption of cell membrane integrity at cytotoxic IC50 after 72 hrs by Hoechst staining based fluorescence microscopic analysis; format: functional
HT-29 [16] = test: Induction of apoptosis in human HT-29 cells assessed as loss of nuclear architecture at cytotoxic IC50 after 72 hrs by Hoechst staining based fluorescence microscopic analysis; format: functional, cell-based
HT-29 [17] = test: Cell cycle arrest in human HT-29 cells assessed as accumulation at G0/G1 phase at cytotoxic IC50 after 72 hrs by propidium iodide staining based flow cytometry (reference value: 55.18 +/- 0.22%); format: functional
HepG2 [18] = test: Cell cycle arrest in human HepG2 cells assessed as accumulation at S phase at cytotoxic IC50 after 72 hrs by propidium iodide staining based flow cytometry (reference value: 54.71 +/- 2.37%); format: functional
B16-F10 [19] = test: Induction of apoptosis in mouse B16F10 cells assessed as bubble shaped region in cell surface at cytotoxic IC50 after 72 hrs by Hoechst staining based fluorescence microscopic analysis; format: functional
HepG2 [20] = test: Disruption of mitochondrial membrane potential in human HepG2 cells assessed as rhodamine123 positive cells at cytotoxic IC50 after 72 hrs by propidium iodide staining based fluorescence spectroscopic analysis (reference value: 88.3 +/- 8.87%); format: functional
HT-29 [21] = test: Cytotoxicity against human HT-29 cells assessed as growth inhibition after 72 hrs by MTT assay; format: functional, cell-based; settings: HT-29, 72 h
HepG2 [22] = test: Induction of apoptosis in human HepG2 cells assessed as bubble shaped region in cell surface at cytotoxic IC50 after 72 hrs by Hoechst staining based fluorescence microscopic analysis; format: functional
HepG2 [23] = test: Induction of apoptosis in human HepG2 cells assessed as chromatin condensation at cytotoxic IC50 after 72 hrs by Hoechst staining based fluorescence microscopic analysis; format: functional, cell-based
B16-F10 [24] = test: Induction of apoptosis in mouse B16F10 cells assessed as disruption of cell membrane integrity at cytotoxic IC50 after 72 hrs by Hoechst staining based fluorescence microscopic analysis; format: functional
HT-29 [25] = test: Induction of apoptosis in human HT-29 cells assessed as bubble shaped region in cell surface at cytotoxic IC50 after 72 hrs by Hoechst staining based fluorescence microscopic analysis; format: functional
[26] = Cell cycle arrest in mouse B16F10 cells assessed as accumulation at G0/G1 phase at cytotoxic IC50 after 72 hrs by propidium iodide staining based flow cytometry (reference value: 50.69 +/- 0.61%); format: functional, B16-F10
[27] = Cytotoxicity against mouse B16F10 cells assessed as growth inhibition after 72 hrs by MTT assay; format: functional, cell-based; settings: B16-F10, 72 h
B16-F10 [28] = test: Induction of apoptosis in mouse B16F10 cells assessed as spherical cell shape at cytotoxic IC50 after 72 hrs by Hoechst staining based fluorescence microscopic analysis; format: functional
B16-F10 [29] = test: Potency index, ratio of maslinic acid IC50 to compound IC50 for mouse B16F10 cells; format: functional
HT-29 [30] = test: Disruption of mitochondrial membrane potential in human HT-29 cells assessed as rhodamine123 negative cells at cytotoxic IC50 after 72 hrs by propidium iodide staining based fluorescence spectroscopic analysis (reference value: 5.8 +/- 0.42%); format: functional
HepG2 [31] = test: Induction of apoptosis in human HepG2 cells assessed as cell shrinkage at cytotoxic IC50 after 72 hrs by Hoechst staining based fluorescence microscopic analysis; format: functional
HT-29 [32] = test: Induction of apoptosis in human HT-29 cells assessed as chromatin condensation at cytotoxic IC50 after 72 hrs by Hoechst staining based fluorescence microscopic analysis; format: functional, cell-based
HT-29 [33] = test: Induction of apoptosis in human HT-29 cells assessed as cell shrinkage at cytotoxic IC50 after 72 hrs by Hoechst staining based fluorescence microscopic analysis; format: functional
[34] = Induction of apoptosis in mouse B16F10 cells assessed as late apoptotic cells at cytotoxic IC50 after 72 hrs by Annexin V-FITC/propidium iodide staining based flow cytometry (reference value: 0.75 +/- 0.21%); format: functional, B16-F10
HepG2 [35] = test: Cell cycle arrest in human HepG2 cells assessed as accumulation at G2/M phase at cytotoxic IC50 after 72 hrs by propidium iodide staining based flow cytometry (reference value: 8.47 +/- 2.55%); format: functional

| Compound | Activity (HT-29 [1]) | Activity (HT-29 [2]) | Activity [3] | Activity (HT-29 [4]) | Activity (HT-29 [5]) | Activity (HepG2 [6]) | Activity [7] | Activity [8] | Activity (B16-F10 [9]) | Activity (HT-29 [10]) | Activity (HepG2 [11]) | Activity (HepG2 [12]) | Activity (HT-29 [13]) | Activity (HT-29 [14]) | Activity (HT-29 [15]) | Activity (HT-29 [16]) | Activity (HT-29 [17]) | Activity (HepG2 [18]) | Activity (B16-F10 [19]) | Activity (HepG2 [20]) | also measured |
| --- | --- | --- | --- | --- | --- | --- | --- | --- | --- | --- | --- | --- | --- | --- | --- | --- | --- | --- | --- | --- | --- |
| CC1(C)CC[C@]2(C(=O)NCCCOCCOCCOCCCN)CC[C@]3(C)C(=CC[C@@H]4[C@@]5(C)C[C@@H](O)[C@H](O)C(C)(C)[C@@H]5CC[C@]43C)[C@@H]2C1 | 7.12% | 31.25% | 10.91% | 61% | 63.1% | 40.22% | 51.95% | 0.2% | Active | 7.6% | Active | 46.75% | 0.2% | Active | Active | Active | 79.78% | 50.45% | Active | 59.2% | pIC50 (HT-29 [21]): 4.93; Activity (HepG2 [22]): Active; Activity (HepG2 [23]): Active; Activity (B16-F10 [24]): Active; Activity (HT-29 [25]): Active; Activity [26]: 66.66%; pIC50 [27]: 4.94; Activity (B16-F10 [28]): Active; Ratio IC50 (B16-F10 [29]): 3.2; Activity (HT-29 [30]): 36.95%; Activity (HepG2 [31]): Active; Activity (HT-29 [32]): Active; Activity (HT-29 [33]): Active; Activity [34]: 38.65%; Activity (HepG2 [35]): 9.34% |
| COCCOCCOCC(=O)O[C@@H]1C[C@]2(C)[C@H]3CC=C4[C@@H]5CC(C)(C)CC[C@]5(C(=O)O)CC[C@@]4(C)[C@]3(C)CC[C@H]2C(C)(C)[C@H]1OC(=O)COCCOCCOC | 4.97% | 40.1% | 0% | 59.75% | 94.3% | 58.19% | 24.9% | 0% | Active | 0.15% | Active | 14.75% | 0% | Active | Active | Active | 94.28% | 26.7% | Active | 56.7% | pIC50 (HT-29 [21]): 4.40; Activity (HepG2 [22]): Active; Activity (HepG2 [23]): Active; Activity (B16-F10 [24]): Active; Activity (HT-29 [25]): Active; Activity [26]: 87.93%; pIC50 [27]: 4.31; Activity (B16-F10 [28]): Active; Ratio IC50 (B16-F10 [29]): 0.7; Activity (HT-29 [30]): 5.7%; Activity (HepG2 [31]): Active; Activity (HT-29 [32]): Active; Activity (HT-29 [33]): Active; Activity [34]: 56.05%; Activity (HepG2 [35]): 15.45% |
